In ChEMBL document CHEMBL3734750, “A click chemistry approach for the synthesis of mono and bis aryloxy linked coumarinyl triazoles as anti-tubercular agents” (2015):
In brackets after ≈: the same amount, converted by molar mass.

Tests used:
[1] = tested on: Mycobacterium tuberculosis; experiment: Antitubercular activity against Mycobacterium tuberculosis H37Rv after 5 days by microplate Alamar blue assay; type: functional; details: for MIC: Mycobacterium tuberculosis, H37Rv, 120 h
[2] = tested on: Mycobacterium tuberculosis; experiment: Antitubercular activity against Mycobacterium tuberculosis after 5 days by microplate Alamar blue assay; type: functional; details: 120 h

With `COc1ccc2oc(=O)cc(Cn3cc(COc4ccc(Br)cc4)nn3)c2c1` the “-logMIC” value [1] was 4.3 and the MIC [1] was 50 µg/mL (≈ 113 µM).
In the case of `Cc1ccc2oc(=O)cc(Cn3cc(COc4ccc(OCc5cn(Cc6cc(=O)oc7ccc(C)cc67)nn5)cc4)nn3)c2c1`, the “-logMIC” value [1] is reported as 6.69 and the MIC [1] is reported as 0.2 µg/mL (≈ 0.324 µM).
With `COc1ccc(OCc2cn(Cc3cc(=O)oc4ccc(C)cc34)nn2)cc1` the “-logMIC” value [1] was 4.3 and the MIC [1] was 50 µg/mL (≈ 132 µM).
`O=c1cc(Cn2cc(COc3ccc(Cl)cc3)nn2)c2cc(Br)ccc2o1` was tested, and the “-logMIC” value [1] was 4.3 and the MIC [1] was 50 µg/mL (≈ 112 µM).
With `Cc1ccc2c(Cn3cc(COc4ccc(OCc5cn(Cc6cc(=O)oc7c(C)c(C)ccc67)nn5)cc4)nn3)cc(=O)oc2c1C` the “-logMIC” value [1] was 5.5 and the MIC [1] was 3.12 µg/mL (≈ 4.85 µM).
With `Cc1ccc2oc(=O)cc(Cn3cc(COc4ccc(Cl)cc4)nn3)c2c1` the “-logMIC” value [1] was 4.3 and the MIC [1] was 50 µg/mL (≈ 131 µM).
`O=c1cc(Cn2cc(COc3ccc(Br)cc3)nn2)c2ccc3ccccc3c2o1` was tested, and the “-logMIC” value [1] was 4 and the MIC [1] was 100 µg/mL (≈ 216 µM).
For `O=c1cc(Cn2cc(COc3ccc(Br)cc3)nn2)c2ccc(Cl)cc2o1`, the “-logMIC” value [1] was 4.3 and the MIC [1] was 50 µg/mL (≈ 112 µM).
For `Cc1ccc2c(Cn3cc(COc4ccc(OCc5cn(Cc6cc(=O)oc7cc(C)ccc67)nn5)cc4)nn3)cc(=O)oc2c1`, the “-logMIC” value [1] was 5.2 and the MIC [1] was 6.25 µg/mL (≈ 10.1 µM).
With `COc1ccc(OCc2cn(Cc3cc(=O)oc4ccc5ccccc5c34)nn2)cc1` the “-logMIC” value [1] was 4.3 and the MIC [1] was 50 µg/mL (≈ 121 µM).
With `COc1ccc2c(Cn3cc(COc4ccc(OCc5cn(Cc6cc(=O)oc7cc(OC)ccc67)nn5)cc4)nn3)cc(=O)oc2c1` the “-logMIC” value [1] was 5.2 and the MIC [1] was 6.25 µg/mL (≈ 9.64 µM).
In the case of `Cc1ccc2oc(=O)cc(Cn3cc(COc4ccc(Br)cc4)nn3)c2c1`, the “-logMIC” value [1] is reported as 4.3 and the MIC [1] is reported as 50 µg/mL (≈ 117 µM).
`COc1ccc(OCc2cn(Cc3cc(=O)oc4c3ccc3ccccc34)nn2)cc1` was tested, and the “-logMIC” value [1] was 4.3 and the MIC [1] was 50 µg/mL (≈ 121 µM).
For `O=c1cc(Cn2cc(COc3ccc(Br)cc3)nn2)c2c(ccc3ccccc32)o1`, the “-logMIC” value [1] was 4 and the MIC [1] was 50 µg/mL (≈ 108 µM).
`COc1ccc(OCc2cn(Cc3cc(=O)oc4cc(Cl)ccc34)nn2)cc1` was tested, and the “-logMIC” value [1] was 4.3 and the MIC [1] was 50 µg/mL (≈ 126 µM).
`COc1ccc(OCc2cn(Cc3cc(=O)oc4ccc(OC)cc34)nn2)cc1` was tested, and the “-logMIC” value [1] was 4.3 and the MIC [1] was 50 µg/mL (≈ 127 µM).
In the case of `O=c1cc(Cn2cc(COc3ccc(Cl)cc3)nn2)c2c(ccc3ccccc32)o1`, the “-logMIC” value [1] is reported as 4.3 and the MIC [1] is reported as 50 µg/mL (≈ 120 µM).
With `O=C(O)c1cn(C2CC2)c2cc(N3CCNCC3)c(F)cc2c1=O` [CIPROFLOXACIN] the MIC [1] was 3.12 µg/mL (≈ 9.43 µM).
For `COc1ccc(OCc2cn(Cc3cc(=O)oc4cc(OC)ccc34)nn2)cc1`, the “-logMIC” value [1] was 4.3 and the MIC [1] was 50 µg/mL (≈ 127 µM).
For `Cc1cc(=O)oc2cc(OCc3cn(Cc4cc(=O)oc5ccc(Cl)cc45)nn3)ccc12`, the MIC [2] was 6.25 µg/mL (≈ 13.9 µM).
With `O=c1cc(Cn2cc(COc3ccc(OCc4cn(Cc5cc(=O)oc6c5ccc5ccccc56)nn4)cc3)nn2)c2ccc3ccccc3c2o1` the “-logMIC” value [1] was 4.93 and the MIC [1] was 12.5 µg/mL (≈ 18.2 µM).
With `COc1ccc(OCc2cn(Cc3cc(=O)oc4cc(C)ccc34)nn2)cc1` the “-logMIC” value [1] was 4.3 and the MIC [1] was 50 µg/mL (≈ 132 µM).
`Cc1ccc2c(Cn3cc(COc4ccc(Br)cc4)nn3)cc(=O)oc2c1` was tested, and the “-logMIC” value [1] was 4.3 and the MIC [1] was 50 µg/mL (≈ 117 µM).
With `NC(=O)c1cnccn1` [PYRAZINAMIDE] the MIC [1] was 3.12 µg/mL (≈ 25.4 µM).
`CN[C@@H]1[C@H](O[C@H]2[C@H](O[C@H]3[C@H](O)[C@@H](O)[C@H](N=C(N)N)[C@@H](O)[C@@H]3N=C(N)N)O[C@@H](C)[C@]2(O)C=O)O[C@@H](CO)[C@H](O)[C@H]1O` [STREPTOMYCIN] gave an MIC [1] of 6.25 µg/mL (≈ 10.7 µM).
For `O=c1cc(Cn2cc(COc3ccc(Cl)cc3)nn2)c2ccc(Cl)cc2o1`, the “-logMIC” value [1] was 4.3 and the MIC [1] was 50 µg/mL (≈ 124 µM).
`COc1ccc(OCc2cn(Cc3cc(=O)oc4ccc(Br)cc34)nn2)cc1` was tested, and the “-logMIC” value [1] was 4.3 and the MIC [1] was 50 µg/mL (≈ 113 µM).
`Cc1ccc2c(Cn3cc(COc4ccc(Cl)cc4)nn3)cc(=O)oc2c1` was tested, and the “-logMIC” value [1] was 4.3 and the MIC [1] was 50 µg/mL (≈ 131 µM).
For `COc1ccc(OCc2cn(Cc3cc(=O)oc4cc(C)cc(C)c34)nn2)cc1`, the “-logMIC” value [1] was 4.3 and the MIC [1] was 50 µg/mL (≈ 128 µM).
`Cc1cc(C)c2c(Cn3cc(COc4ccc(OCc5cn(Cc6cc(=O)oc7cc(C)cc(C)c67)nn5)cc4)nn3)cc(=O)oc2c1` was tested, and the “-logMIC” value [1] was 5.2 and the MIC [1] was 6.25 µg/mL (≈ 9.69 µM).
`O=c1cc(Cn2cc(COc3ccc(Br)cc3)nn2)c2cc(Br)ccc2o1` was tested, and the “-logMIC” value [1] was 4.3 and the MIC [1] was 50 µg/mL (≈ 102 µM).
